One experiment concerns the target T1, Y27A-TbpA (Escherichia coli, UniProt P31550, Y27A).
T1 sequence (P31550 19-327 Y27A): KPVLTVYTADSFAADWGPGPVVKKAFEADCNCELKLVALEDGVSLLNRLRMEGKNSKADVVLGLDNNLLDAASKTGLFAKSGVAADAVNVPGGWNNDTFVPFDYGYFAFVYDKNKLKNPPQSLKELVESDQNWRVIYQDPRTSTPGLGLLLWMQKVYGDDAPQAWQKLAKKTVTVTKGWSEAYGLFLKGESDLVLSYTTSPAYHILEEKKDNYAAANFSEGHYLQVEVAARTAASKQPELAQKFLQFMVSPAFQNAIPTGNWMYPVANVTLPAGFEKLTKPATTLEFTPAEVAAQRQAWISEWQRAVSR
Put plainly: Nanopore recording of ligand binding to Y27A-TbpA inside ClyA-AS.

Experiment [1] deals with T2, WT-TbpA (Escherichia coli, UniProt P31550).
T2 sequence (P31550 19-327): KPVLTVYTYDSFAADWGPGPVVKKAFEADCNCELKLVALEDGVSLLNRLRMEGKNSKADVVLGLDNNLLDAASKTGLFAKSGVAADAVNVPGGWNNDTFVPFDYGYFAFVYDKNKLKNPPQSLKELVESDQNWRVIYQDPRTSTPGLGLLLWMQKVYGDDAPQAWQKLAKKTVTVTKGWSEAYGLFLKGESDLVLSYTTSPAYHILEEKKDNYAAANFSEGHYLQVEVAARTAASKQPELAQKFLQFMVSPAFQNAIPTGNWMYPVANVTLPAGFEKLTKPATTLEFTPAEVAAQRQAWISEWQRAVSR
The target in experiment [2] is T2, WT-TbpA. Description: biochemical.

Read-outs that look alike come from different tables or passages of the source.

The values that follow come from PMC8518494 (Angewandte Chemie (International Ed. in English), 2021).

Compound `Cc1ncc(C[n+]2csc(CCO[P@](=O)(O)OP(=O)(O)O)c2C)c(N)n1` [ThDP, thiamine diphosphate] returned a Kd on Y27A-TbpA of approximately 2000 nM. The “ΔIres%(ThDP1)” value at Y27A-TbpA (2 μM ThDP added to cis, first type of event) is 4.0±0.1%. For the same compound, on Y27A-TbpA (2 μM ThDP added to cis, second type of event), the “ΔIres%(ThDP2)” value is given as 7.2±0.1%. In addition, the “capture frequency for both events” value at Y27A-TbpA (2 μM ThDP, cis) was 6.5 ± 3 µM⁻¹ s⁻¹. Further, the results for the koff at Y27A-TbpA (read-out: k off(ThDP1)) and at Y27A-TbpA (read-out: k off(ThDP2)) were 2.9 ± 0.4 s⁻¹ and 1.7 ± 0.3 s⁻¹, respectively.
Turning to `Cc1ncc(C[n+]2csc(CCOP(=O)(O)O)c2C)c(N)n1` [ThMP, thiamine monophosphate], the “ΔIres%(ThMP1)” value on Y27A-TbpA (0.1 μM ThMP added to cis, first kind of bound event) amounted to 4.8±0.2%. Further, the “ΔIres%(ThMP2)” value at Y27A-TbpA (0.1 μM ThMP added to cis, second kind of bound event) is recorded as 7.3±0.3%. Besides, at Y27A-TbpA (read-out: capture frequency (an approximate k on) for both events), the kon worked out at 1.6e+07 ± 4e+06 M⁻¹ s⁻¹. Further, the koff came out at 2.3 ± 0.4 s⁻¹ at Y27A-TbpA (read-out: k off(ThMP1)) and 2 ± 0.2 s⁻¹ on Y27A-TbpA (read-out: k off(ThMP2)).
One may read the Hill coefficient as the slope factor of the fitted curve. As for `Cc1ncc(C[n+]2csc(CCO)c2C)c(N)n1` [thiamine, Thiamine], the “ΔIres%(thiamine)” value on WT-TbpA [1] (WT-TbpA 15 nM cis, 4 μM thiamine added to cis, −45 mV, 150 mM NaCl, 15 mM Tris.HCl pH 7.5) was 3.1±0.6%; on Y27A-TbpA (Y27A-TbpA 15 nM cis, 4 μM thiamine added to cis, −45 mV), 6.9±0.6%. The “Ires%(thiamine), closed state” value was determined as 45.9±0.8% at WT-TbpA [1] (WT-TbpA, thiamine-bound state) and 48.4±0.9% at Y27A-TbpA (Y27A-TbpA, thiamine-bound state). At WT-TbpA [1] (thiamine added to trans, WT-TbpA in cis), the “effect of addition of thiamine to the trans solution” value was “did not elicit additional current blockades”. Moreover, the Kd at WT-TbpA [2] came out at 67 ± 5 nM; on Y27A-TbpA (Kd app(cis), thiamine added to cis, Hill curve fit to bound fraction) it was 23.1 ± 0.1 nM; on Y27A-TbpA (Kd app(trans), thiamine added to trans) it was 91.1 ± 0.4 nM. Further, on Y27A-TbpA (Y27A-TbpA), the “difference in apparent Kd between cis and trans” value is 4 fold. In addition, the “difference in k on rates between cis and trans” value at Y27A-TbpA (Y27A-TbpA) was determined as 4 fold. Also, the koff at Y27A-TbpA (read-out: k off(cis)) worked out at 1.8 ± 0.3 s⁻¹; on Y27A-TbpA (read-out: k off(trans)), 1.7 ± 0.1 s⁻¹. Further, the kon worked out at 6.9e+07 ± 9e+06 M⁻¹ s⁻¹ on Y27A-TbpA (read-out: k on(cis)) and 1.4e+07 ± 3e+06 M⁻¹ s⁻¹ at Y27A-TbpA (read-out: k on(trans)). Besides, the “effect of addition of thiamine to the trans chamber” value on Y27A-TbpA (thiamine added to trans, Y27A-TbpA in cis) is recorded as “induced thiamine events”. On Y27A-TbpA (thiamine, cis and trans), this compound gave a Hill coefficient of 1.
